Laboratory results taken from paper PMC10112268, “Inhibition of Human Coronaviruses by Combinations of Host-Targeted and Direct-Acting Antivirals” (Antimicrobial Agents and Chemotherapy, 2023).
Like-named read-outs stand apart in the source and are kept apart here.

Assays:
HCoV-OC43 [1] = assay: Time of addition assay; assay type: cell-based; conditions: for IC50: 48 hpi
TGEV = assay: Antiviral effect against TGEV in WSL or ST cells, plaque assay on ST; assay type: cell-based, swine coronavirus TGEV; conditions: LG in WSL cells, VPA in ST cells
Experimental: Figure S2. […] The inhibitory effect […]
of LG or VPA was assayed on triplicate cultures of TGEV-infected WSL (wild swine macrophage cell line) or ST (swine testis) cells, respectively. After 1 h-pre-incubation with AVs, triplicate cultures were infected with the corresponding virus, at a MOI of 2 PFU/cell, in a reduced volume of medium containing the AV, for 2h, virus inoculum removed and cells washed twice with medium, before the addition of drug-containing fresh medium (supplemented with 2% FBS). Cultures were then incubated for 24 h at 37 °C; total virus (intracellular and extracellular) production was evaluated by plaque assay on triplicate cultures of ST cells. Left y-axis represents infectious virus progeny at 24 hpi and right y-axis, cell viability determined by MTT assay of each corresponding cell line. IC50 values and SI values […]
[TGEV titers (PFU/ml): 1.1±0.1 x 108 in the absence of the drugs, […]
(1 picture or pasted object on this page, not shown here)

SARS-CoV-2 = assay: Direct virucidal effect on virus particles; conditions: 10^5 PFU, 1 h at room temperature; LG 0 to 300 μM, VPA 0 to 300 mM
[2] = system: HCoV-229E, HCoV-OC43, and SARS-CoV-2; assay: Antiviral assays, summary over all tested HCoVs; assay type: cell-based, human coronaviruses
in vitro [3] = conditions: African green monkey
[4] = system: SARS-CoV-2 isolate 39896362_AG (omicron strain); assay: microbe, parasite or virus in culture; assay type: cell-based; conditions: […], Fig. 1
HCoV-229E-GFP [5] = assay: Direct virucidal effect on virus particles; conditions: 10^5 PFU, 1 h at room temperature; LG 0 to 300 μM, VPA 0 to 300 mM
SARS-CoV-2 (MAD6) = assay: Drug combination (synergy) study, virus yield in Calu3 2B4, CompuSyn; assay type: cell-based
[6] = long-term toxicity studies in rats and mice; cited from earlier work
[7] = system: SARS-CoV-2 isolate MAD6 (Wuhan-Hu-1 strain); assay: Virus yield inhibition in infected Calu3 2B4 cells, plaque assay on Vero E6; assay type: cell-based
HCoV-229E-GFP [8] = assay type: cell-based; conditions: at 16 μM LG; no drug 3.5 ± 0.6 × 10^6
HCoV-OC43 [9] = assay: microbe, parasite or virus in culture; assay type: cell-based
HCoV-OC43 [10] = assay type: cell-based; conditions: at 32 μM LG; no drug 3.2 ± 0.2 × 10^6
HCoV-OC43 [11] = assay: Direct virucidal effect on virus particles; conditions: 10^5 PFU, 1 h at room temperature; LG 0 to 300 μM, VPA 0 to 300 mM
[12] = system: SARS-CoV-2 isolate MAD6 (Wuhan-Hu-1 strain); assay: Time of addition assay; assay type: cell-based; conditions: for IC50: 24 hpi, read-out: IC50, SARS-CoV-2 production
in vitro [13] = conditions: human, CC50 (MTT assay), HCT-8
HCoV-229E-GFP [14] = assay: microbe, parasite or virus in culture; assay type: cell-based; conditions: for IC50: Human coronavirus 229E
in vitro [15] = conditions: human, CC50 (MTT assay), Huh-7
HCoV-229E-GFP [16] = assay: Time of addition assay; assay type: cell-based; conditions: for IC50: Human coronavirus 229E, 24 hpi
FMDV = conditions: mouse, cited from earlier work
in vitro [17] = conditions: human

CCCCCCCCCCCCOC(=O)c1cc(O)c(O)c(O)c1 [LG, lauryl gallate]
IC50 (HCoV-OC43 [1]; Betacoronavirus 1, OC43, read-out: IC50, HCoV-OC43 production, AV added 0 hpi): 1.92 µM | IC50 (HCoV-OC43 [1]; Betacoronavirus 1, OC43, read-out: IC50, HCoV-OC43 production, AV added 2 hpi): 2.97 µM | IC50 (HCoV-OC43 [1]; Betacoronavirus 1, OC43, read-out: IC50, HCoV-OC43 production, AV added −3 hpi (1 h before adsorption)): 1.79 µM | HCoV-OC43 average titers (HCoV-OC43 [1]; at 40 μM LG, average of addition times, no drug 3.5 ± 0.5 × 10^6): 5 ± 0.01 × 10^1 PFU/mL | inhibition of TGEV multiplication (TGEV): inhibited the multiplication | direct virucidal effect (change in virus titers) (SARS-CoV-2): No decrease in virus titers | SI values for all tested HCoVs [2]: above 30 | IC50 ([2]; average over all tested HCoVs, read-out: average IC50 value): 1.6 µM | IC50 ([2]; range over tested HCoVs, read-out: IC50 values, range over HCoVs): 1 to 2 µM | CC50 (in vitro [3]): 90.9 µM | IC50 ([4]; Severe acute respiratory syndrome coronavirus 2, Vero C1008, Vero E6, omicron strain, AV from 1 h before adsorption, read-out: IC50, virus yield): 1.36 ± 0.2 µM | SARS-CoV-2 isolate 39896362_AG titers ([4]; at LG 64 μM, no drug 1 ± 0.1 × 10^5): 5 ± 0.01 × 10^1 PFU/mL | direct virucidal effect (change in virus titers) (HCoV-229E-GFP [5]): No decrease in virus titers | SARS-CoV-2 titers (SARS-CoV-2 (MAD6); at 16 μM LG, no drug 3.2 ± 0.2 × 10^5): 6 ± 0.2 × 10^3 PFU/mL | average DRI (SARS-CoV-2 (MAD6); for the named drug over its combinations, at Fa = 0.5 to 0.95): 4.25 | highest dose at which no effects were observed [6]: 1,000 mg kg-1 of feed | IC50 ([7]; Severe acute respiratory syndrome coronavirus 2, Calu-3 2B4, read-out: IC50, virus yield, Calu3 2B4, Wuhan-Hu-1 strain, AV from 1 h before adsorption, 24 hpi, Fig. 1): 2.26 ± 0.5 µM | SARS-CoV-2 titers ([7]; at 100 μM, Fig. 3, no drug 3.±0.1 × 10^5): 1 ± 0.1 × 10^2 PFU/mL | SARS-CoV-2 isolate MAD6 titers ([7]; at LG 100 μM, 24 hpi, no drug 3.4 ± 1 × 10^5, Fig. 1): 5 ± 0.01 × 10^1 PFU/mL | HCoV-229E-GFP titers (HCoV-229E-GFP [8]): 5 ± 0.2 × 10^2 PFU/mL | selectivity index (SI=CC50/IC50) (HCoV-OC43 [9]): 33.74 | IC50 (HCoV-OC43 [9]; Betacoronavirus 1, OC43, Huh-7, read-out: IC50, virus yield, Huh-7, AV from 1 h before adsorption, 48 hpi, Fig. 1): 1.63 ± 0.6 µM | IC50 (HCoV-OC43 [9]; Betacoronavirus 1, OC43, Huh-7, read-out: IC50, virus yield, specificity experiment (Fig. 3), Huh-7, 48 hpi): 1.14 µM | HCoV-OC43 titers (HCoV-OC43 [9]; at 100 μM, Fig. 3, no drug 1.8 ± 0.9 × 10^6): 5 ± 0.01 × 10^1 PFU/mL | HCoV-OC43 titers (HCoV-OC43 [9]; at LG 40 μM, 48 hpi, no drug 3.1 ± 0.9 × 10^6, Fig. 1): 5 ± 0.01 × 10^1 PFU/mL | HCoV-OC43 titers (HCoV-OC43 [10]): 2.2 ± 0.2 × 10^3 PFU/mL | direct virucidal effect (change in virus titers) (HCoV-OC43 [11]): No decrease in virus titers | IC50 ([12]; Severe acute respiratory syndrome coronavirus 2, AV added 0 hpi): 2.9 µM | IC50 ([12]; Severe acute respiratory syndrome coronavirus 2, AV added 2 hpi): 3.09 µM | IC50 ([12]; Severe acute respiratory syndrome coronavirus 2, AV added −2 hpi (1 h before adsorption)): 2.72 µM | SARS-CoV-2 average titers ([12]; at 100 μM LG, average of addition times, no drug 3.4 ± 0.2 × 10^5): 5 ± 0.01 × 10^1 PFU/mL | CC50 (in vitro [13]; 24 h cell incubation with AV): 55 µM | CC50 (in vitro [13]; 48 h cell incubation with AV): 50.4 µM | selectivity index (SI=CC50/IC50) (HCoV-229E-GFP [14]): 79.14 | IC50 (HCoV-229E-GFP [14]; Huh-7, read-out: IC50, virus yield, Huh-7, AV from 1 h before adsorption, 24 hpi, Fig. 1): 1.05 ± 0.3 µM | IC50 (HCoV-229E-GFP [14]; Huh-7, read-out: IC50, virus yield, specificity experiment (Fig. 3), Huh-7, 24 hpi): 1.72 µM | HCoV-229E-GFP titers (HCoV-229E-GFP [14]; at 100 μM, Fig. 3, no drug 4 ± 0.9 × 10^6): 5 ± 0.2 × 10^2 PFU/mL | HCoV-229E-GFP titers (HCoV-229E-GFP [14]; at LG 40 μM, 24 hpi, no drug 3 ± 0.5 × 10^6, Fig. 1): 1.4 ± 0.2 × 10^2 PFU/mL | CC50 (in vitro [15]; 24 h cell incubation with AV): 83.1 µM | CC50 (in vitro [15]; 48 h cell incubation with AV): 55 µM | IC50 (HCoV-229E-GFP [16]; read-out: IC50, HCoV-229E-GFP production, AV added 0 hpi): 1.48 µM | IC50 (HCoV-229E-GFP [16]; read-out: IC50, HCoV-229E-GFP production, AV added 2 hpi): 2.05 µM | IC50 (HCoV-229E-GFP [16]; read-out: IC50, HCoV-229E-GFP production, AV added −3 hpi (1 h before adsorption)): 1.24 µM | HCoV-229E-GFP average titers (HCoV-229E-GFP [16]; at 40 μM LG, average of addition times, no drug 4 ± 0.6 × 10^6): 6 ± 2 × 10^2 PFU/mL | toxicity to the animals (FMDV; in vivo): not found to be toxic | in vivo antiviral effect against FMDV (FMDV): reducing FMDV-induced mortality and viral load in mice | CC50 (in vitro [17]): 124 µM
